From the METLIN SMRT retention time set (Domingo-Almenara et al. 2019)

Test: gradient 5% acetonitrile 3 min, to 50% in 2 min, to 85% in 15 min, held 3 min, 100 µL/min
Conditions: column: Zorbax Extend-C18 2.1 x 50 mm; eluents: water / acetonitrile, 0.1% formic acid
Summary of the method: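 Over 3 months, pure standards in mixtures of ~100 molecules were run by HPLC coupled to a quadrupole time-of-flight mass spectrometer in positive and negative ionization mode. The column was a Zorbax Extend-C18 (2.1 × 50 mm, 1.8 μm) at 100 μL/min, eluted with water and acetonitrile each holding 0.1% formic acid, with 40 μL dead and 900 μL dwell volumes. Retention time was determined from adduct peaks chosen by software and checked manually.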

Row | RP-LC retention time [s] | Structure (SMILES)
1 | 804 | O=C1CSC(c2cccs2)N1c1nncs1 (stereo not given)
2 | 664 | Clc1cc(Br)ccc1-c1ccc(CNCc2cccnc2)o1
3 | 834 | CC(C)NC(=O)c1nc(-c2cn(-c3cccc(F)c3)nn2)no1
4 | 664 | CN(CC1CCOCC1)C(=O)c1cccs1
5 | 579 | O=C(NCC#CCN1CCc2ccccc2C1)c1ccc2cc[nH]c2c1
6 | 625 | CCn1c(CCNC(=O)c2ccc(N(C)C)cc2)nc2cccnc21
7 | 942 | O=C(NCc1ccco1)c1ccc2c(c1)N(Cc1ccccc1)C(=O)CO2
8 | 945 | Cc1ccc(-c2nnc(-c3nc(N4CCOCC4)c4ccccc4n3)o2)cc1
9 | 711 | COc1ccc(CNC(=O)C2c3ccccc3CC(=O)N2C)cc1 (stereo not given)
10 | 650 | CCN1CCCC1CNC(=O)c1ccc2nc(Cc3ccccc3)oc2c1 (stereo not given)
11 | 759 | O=S(=O)(Nc1ccc(Cn2cncn2)cc1)c1ccc2c(c1)CCC2
12 | 856 | Cc1nnc(-c2cn(CC(=O)Nc3ccc(Cl)cc3)c3ccccc23)o1
13 | 598 | CCCN1CCN(CCCNC(=O)CCc2nc(N3CCCCC3)c3c(CC)noc3n2)CC1
14 | 604 | O=C(c1ccc(CS(=O)c2ccccc2Cl)o1)N1CCN(c2ccccn2)CC1 (stereo not given)
15 | 643 | CCN1CCC2(CC1)OC(=O)C(C)=C2C(=O)Nc1cc(Cl)c(OC)cc1OC
16 | 1050 | Cc1nc(-c2csc(S(=O)(=O)N3CCC(C(=O)N4c5ccccc5CC4C)CC3)c2)no1 (stereo not given)
17 | 718 | Cc1ccc(S(=O)(=O)c2cnc(N3CCN(C4CCCCC4)CC3)nc2N)cc1C
18 | 683 | O=C1NCCOCCN(C(=O)COc2ccccc2)[C@H]2CCC[C@@H]12
19 | 741 | Cc1ccc(Nc2c(-c3ccccc3)nc3cc(C)ccn23)cc1
20 | 694 | COc1cccc(C2CC(c3ccc(Br)cc3)=NC3(CCN(C(C)=O)CC3)N2)c1O (stereo not given)
21 | 805 | Cc1ccc(Nc2c(-c3ccc(N(C)C)cc3)nc3c(C)cccn23)cc1
22 | 926 | COc1cccc(-n2cc(C(=O)Oc3cccnc3)c3ccccc3c2=O)c1
23 | 1090 | COc1ccc(-n2ncc3c(=O)n(Cc4nc(-c5ccc(Br)cc5)no4)cnc32)cc1
24 | 673 | COc1cccc(NC(=O)Nc2ccc3nc4n(c(=O)c3c2)CCC4)c1
25 | 882 | Cn1nc(-c2nc(C3CC3)no2)c2c1CCN(C(=O)Nc1ccc(Cl)cc1)C2
26 | 709 | COc1ccc(NC(=O)Cn2nc3n(c2=O)CCCCC3)cc1
27 | 597 | CCN(CC)CCCNC(=O)C1c2ccccc2C(=O)N2CCc3cc(OC)c(OC)cc3C12 (stereo not given)

Row | RP-LC retention time [s] | Structure (SMILES)
28 | 848 | Cc1nc(N2CCCC2)c2c(C(=O)Nc3ccc(Cl)cc3)c(C)oc2n1
29 | 661 | Cn1cc(-c2ccc3nnc(Sc4ccc5ncccc5c4)n3n2)cn1
30 | 845 | O=C(NC1CCCCCC1)C1CCN(Cc2cc3ccccc3n2Cc2ccccc2)CC1
31 | 839 | O=C1CCC2(CCN1)CCN(S(=O)(=O)c1ccc(Cl)c(Cl)c1)CC2
32 | 1260 | COc1ccc(C)cc1NC(=O)Cn1nc(N2CCCC(C)C2)c2ccccc2c1=O (stereo not given)
33 | 732 | O=C(Nc1ccc2nc(-c3ccccc3)cc(N3CCOCC3)c2c1)NC1CCCCC1
34 | 1220 | Cc1ccc(-c2cc3c(=O)n(Cc4nc(-c5ccccc5Cl)no4)ncn3n2)c(C)c1
35 | 821 | O=c1n(Cc2c(F)cccc2Cl)nc2ccc(S(=O)(=O)N3CCOCC3)cn12
36 | 886 | Cc1cccc(Sc2nccnc2N2CCC(C(=O)NC3CC3)CC2)c1
37 | 995 | c1ccc(-c2nc3ccccc3nc2N2CCOCC2)cc1
38 | 1130 | CCOC(=O)c1nc(N(CC)c2ccc(CC)cc2)c2ccccc2n1
39 | 1170 | O=C(NCCC1CCN(C(=O)Nc2ccccc2F)CC1)c1ccco1
40 | 715 | COc1ccc(C(=O)N2CCN3CCS(=O)(=O)N(C4CC4)C(=O)C3C2)cc1 (stereo not given)
41 | 1060 | Cc1ccc(F)cc1NC(=O)c1cnc(-c2ccc(F)cc2)nc1-c1ccncc1
42 | 622 | Cc1cc(=O)n(CC(=O)Nc2ccccc2)c(N2CCCC2)n1
43 | 775 | Cc1nn(-c2ccc(C(=O)NC(C)C)cc2)c2c1C(=O)CC(C)(C)C2
44 | 711 | O=C(NC1CC1)C1CCc2sc(C(=O)N3CCCCC3)cc2C1 (stereo not given)
45 | 816 | O=C(CNC(=O)c1ccccc1)NC(C(=O)N1CCCc2ccccc21)c1ccccc1 (stereo not given)
46 | 851 | CC(C)n1c(=O)oc2cc(-c3noc(CNC(=O)c4ccccc4)n3)ccc21
47 | 989 | CCCCC(=O)NC1(C(F)(F)F)C(=O)N(Cc2ccccc2)C(C)=C1C(=O)OC (stereo not given)
48 | 808 | COc1ccc(NC(=O)N2CCC3(C2)C(=O)N(C)c2ccccc23)cc1OC (stereo not given)
49 | 774 | Fc1cccc(-c2nnc(C(c3cccc(Cl)c3)N3CCN(c4ccccn4)CC3)o2)c1 (stereo not given)
50 | 1070 | Cn1nccc1-c1cccc(-c2noc(-c3ccccc3F)n2)c1
51 | 931 | COc1ccc2oc(-c3ccccc3)c(C(=O)Nc3nccs3)c2c1
52 | 1040 | Cc1cc(Cl)ccc1NC(=O)c1cc(C2CC2)on1
53 | 706 | CCn1cnnc1C1CCCCN1S(=O)(=O)c1ccccc1F (stereo not given)
54 | 770 | CCC(C)NC(=O)c1cc(C)nc2ccc(Cl)cc12 (stereo not given)

Row | Structure (SMILES) | RP-LC retention time [s]
55 | C[C@H](N)Cc1cccc(C(F)(F)F)c1 | 655
